# Counter-ions that a name gives are not always drawn.
# Legend:
# Type in all cases: physicochemical
# [1] = Appearance (color, clumping, flowability) of stored 25HC3S salts
# Experimental: (§1) Approximately 25 mg of each crystalline 25HC3S salt was added to 20 mL glass vials and each powder weight was recorded. Four vials were prepared for each salt and stored at 2-8° C. or 80° C. according to Table B2. The samples were scheduled initially to pull for testing at 3 weeks and 6 weeks' time points.
# (§2) For those […] salts, the remaining vials stored at 2-8° C. for 3 weeks were allocated for storage at 60° C. for 1 week. Additional stability data was generated according to Table B3.
# For appearance, each unopened vial was visually examined for color, clumping, and flowability.
# [2] = Thermogravimetric analysis (TGA), weight loss
# Experimental: Differential scanning calorimetry (DSC) is a thermoanalytical technique where the difference in the amount of heat required to increase the temperature of a sample and reference is measured as a function of temperature. Using this technique, phase transitions of a sample can be measured such as melting point. Decomposition can also be observed by DSC as can dehydration events. In the context of DSC measurements, there is also variability and the term “about” means ±1° C., and such variability is to be understood whether a DSC measurement is prefaced by “about” or not unless specified otherwise. Exemplary methods for collecting DSC data are set forth in Example 21. Thermogravimetric analysis, sometimes referred to as, thermal gravimetric analysis (TGA) is a thermal method of thermal analysis where the mass of a sample is measured as a function of time as the sample temperature changes. For example, when samples disclosed herein are heated and a loss in mass is measured prior to decomposition, this is likely indicative of the loss of water from the sample and may indicate that the sample being heated is a hydrate. Exemplary methods for collecting TGA are set forth in Example 23.
# TG analysis was performed using a Mettler-Toledo TGA/DSC3 analyzer. Temperature and enthalpy adjustments were performed using indium, tin, and zinc, and then verified with indium. The balance was verified with calcium oxalate. The sample was placed in an open aluminum pan. The pan was hermetically sealed, the lid pierced, then inserted into the TG furnace. A weighed aluminum pan configured as the sample pan was placed on the reference platform. The furnace was heated under nitrogen. Each sample was heated from ambient temperature to 350° C. at 10° C./min. Although thermograms are plotted by reference temperature (x-axis), results are reported according to sample temperatures.
# [3] = Solid-state chemical stability of 25HC3S salts at 2-8° C., 60° C. and 80° C. (HPLC assay and degradation products); conditions: for % Impurities, Total / % Impurities, 25-HC: ND = Not Detected; for % Impurities, 25-HC: 25-Hydroxy-Cholesterol; for % Recovery: vs 2-8° C.; for Stability after 1 week at 60° C. (in words): 1 week (after 3 weeks at 2-8° C.)
# Experimental: as §1, §2
# Based on the molecular weights, and expected UV response factors of each salt used in this study, the expected analytical sample concentrations were within the range of the 25HC3S sodium reference standards (0.75 mg/mL to 1.25 mg/mL as 25HC3S sodium salt). However, due to the lower-than-expected purity of the 25HC3S benzathine salt, an additional standard was prepared at 0.125 mg/mL as 25HC3S sodium salt.
# Samples were prepared by pipetting 20 mL of 100% methanol into each vial and mixing well, with sonication and vortexing to fully dissolve the samples for HPLC analysis.
# Samples were prepared by pipetting 20 mL of 100% methanol into each vial followed by two rounds of sonication for 30 minutes, with 30 seconds of vortexing before and after each round. Sample aliquots were then centrifuged at 10,000 RPM for 10 minutes and the supernatant collected for HPLC analysis.
# Samples were prepared by pipetting 20 mL of 100% methanol into each vial, followed by 5 seconds of vortexing. The undissolved powder in methanol was quantitatively transferred into 200 mL volumetric flasks. The sample vials were rinsed 3 times with methanol, with each rinsate transferred to the 200 mL volumetric flasks. The volumetric flasks were filled to about 90% volume and sonicated for 10 minutes to fully dissolve the powder. The flasks were filled to volume with methanol, mixed well and aliquots collected for HPLC analysis.
# HPLC analysis was performed.
# [4] = Angle of repose of 25HC3S salts; conditions: for Flow Property per USP<1174> Powder Flow: classification by angle of repose
# Experimental: Angle of repose is measured as follows. Powder is poured from a funnel onto a flat surface until a cone of powder is created. The angle of repose is calculated according to the following equation: […]
# Table C1, from USP<1174> Powder Flow, describes the powder flow properties correlating to the angles of repose.
# The lower the angle of repose, the more flowable is a material. Powder with an angle of repose between 25° to 30° will show excellent flow through a hopper, feed frame, die table and die bore smoothly. From 41° to greater than 66°, you may experience powder flow difficulties like rat-holing or bridging within the hopper.
# The angle of repose was determined by pouring approximately 2 grams of a 25HC3S salt through a 7 mm inner diameter plastic tube into the center of a 21.14 mm diameter rubber O-ring, resulting in the formation of a powder cone of fixed diameter. The height of the cone was estimated with calipers.
# [5] = Final pH of the solubility sample solutions in aqueous media; conditions: for pH of the solubility sample, 0.9% Sodium Chloride: 0.9% sodium chloride (blank 5.8); for pH of the solubility sample, 5% Dextrose: 5% dextrose (blank 4.7); for pH of the solubility sample, FaSSGF: FaSSGF (blank 1.5, 1.6); for pH of the solubility sample, FaSSIF: FaSSIF (blank 6.5, 6.5); for pH of the solubility sample, FeSSIF: FeSSIF (blank 4.9, 5.0); for pH of the solubility sample, Water: water (blank 6.3)
# Experimental: 25HC3S salts were weighed in 8 mL or 4 mL glass vials with Teflon coated screw caps. Aliquots of each solvent were added to each sample and vortexed for about one minute until excess solid remained. Samples were placed on shaker at room temperature with 210 motion per minute shaking.
# After one day, samples were pulled and checked if excess solid was present. About 1.5 mL aliquot of each sample was centrifuged at 12000 rpm for 12 to 15 minutes. […] Aliquots of the top clear solution of each centrifuged sample in MeOH, EtOH, IPA and ACN were diluted with diluent (water:MeOH 95:5) and assayed by HPLC. Samples of the salts in aqueous media were assayed by HPLC without dilution.
# 5.1 Solubility of 25HC3S Salts in Aqueous Media
# [6] = 2-8° C., 3 wk, listed as 25HC3S potassium
# [7] = 80° C., 3 wk, listed as 25HC3S potassium
# [8] = 60° C., 1 wk, listed as 25HC3S potassium
# [9] = 2-8° C., 3 wk, listed as 25HC3S calcium
# [10] = 80° C., 3 wk, listed as 25HC3S calcium
compound,measurement,setting,value
CC(CCCC(C)(C)O)C1CCC2C3CC=C4CC(OS(=O)(=O)O)CCC4(C)C3CCC12C (stereo not shown) [Salt #1],Appearance,[1]; [6],"White, free flowing powder with some"
same,Appearance,"[1]; 60° C., 1 wk (after 3 weeks at 2-8° C.), listed as 25HC3S potassium","White, free flowing powder with some"
same,Appearance after 3 weeks at 80° C.,[1]; 80° C.,completely burned
same,Appearance,[1]; [7],"Dark brown powder, stuck to bottom of"
same,"Weight loss by TGA, 100° C. to 180° C.",[2]; 100° C. to 180° C.,1.7%
same,Weight loss by TGA to about 100° C.,[2]; to about 100° C.,about 0.9%
same,"% Impurities, Total",[3]; [6],1.3%
same,"% Impurities, 25-HC",[3]; [6],0.2%
same,"% Impurities, 25-HC",[3]; [8],0.3%
same,Physical and chemical solid-state stability (comments),"[3]; 60° C., 1 week, listed as 25HC3S Potassium",Stable after 1 week at 60 C.
same,Assay,"[3]; 60° C., 1 wk (after 3 weeks at 2-8° C.), 10080 min, listed as 25HC3S potassium, 10080 min",103.1 % w/w
same,% Recovery of 2-8° C./3 wk vs 60° C./1 wk,"[3]; 60° C., 1 wk, 10080 min, listed as 25HC3S potassium",105.4%
same,"% Impurities, Total",[3]; [8],1.6%
same,Physical and chemical solid-state stability (comments),"[3]; 80° C., 3 weeks, listed as 25HC3S Potassium",totally decomposed after 3 weeks
same,% Recovery,"[3]; 80° C., 3 wk, 30240 min, listed as 25HC3S potassium, 30240 min",0.0%
same,Assay,"[3]; 80° C., 3 wk, 30240 min, listed as 25HC3S potassium",0.0 % w/w
same,"% Impurities, Total",[3]; [7],100%
same,remaining at 504 h,"[3]; solid state, 2-8° C., 3 wk, read-out: Assay",97.8%
same,Stability after 1 week at 60° C. (in words),"[3]; solid state, 60° C.",stable
same,Stability after 3 weeks at 80° C. (in words),"[3]; solid state, 80° C., 3 weeks",totally decomposed
same,Flow Property per USP<1174> Powder Flow,[4]; listed as 25HC3S potassium,Fair - aid not needed
same,Angle of Repose,[4]; listed as 25HC3S potassium,37.7 degrees
same,"Angle of Repose, Rounded Whole Number",[4]; listed as 25HC3S potassium,38 degrees
same,"pH of the solubility sample, 0.9% Sodium Chloride",[5]; listed as 25HC3S potassium,8.4
same,"pH of the solubility sample, 5% Dextrose",[5]; listed as 25HC3S potassium,7.3
same,"pH of the solubility sample, FaSSGF",[5],1.6
same,"pH of the solubility sample, FaSSIF",[5]; listed as 25HC3S potassium,6.5
same,"pH of the solubility sample, FeSSIF",[5],5.0
same,pH of solubility sample solution in water,[5]; water,8.9
same,"pH of the solubility sample, Water",[5]; listed as 25HC3S potassium,8.9
CC(CCCC(C)(C)O)C1CCC2C3CC=C4CC(OS(=O)(=O)O)CCC4(C)C3CCC12C (stereo not shown) [Salt #2],Appearance,[1]; [9],"White, free flowing powder with some"
same,Appearance,"[1]; 60° C., 1 wk (after 3 weeks at 2-8° C.), listed as 25HC3S calcium","Brown, melted material stuck to bottom"
same,Appearance after 3 weeks at 80° C.,[1]; 80° C.,completely burned
same,Appearance,[1]; [10],"Dark brown, melted material stuck to"
same,"Weight loss by TGA, about 112° C. to about 130° C.",[2]; about 112° C. to about 130° C.,3.1%
same,"Weight loss by TGA, room temperature to about 93° C.",[2]; room temperature to about 93° C.,about 0.9%
same,Assay,"[3]; 2-8° C., 3 wk, 30240 min, listed as 25HC3S calcium",92.9 % w/w
same,"% Impurities, Total",[3]; [9],1.6%
same,Overall physical and chemical stability (in words),"[3]; 2-8° C., 60° C., 80° C.",least physically and chemically stable
same,Overall physical and chemical stability (in words),"[3]; 2-8° C., 60° C., 80° C., listed as 25HC35S calcium",least stable
same,"% Impurities, 25-HC",[3]; [9],0.2%
same,Physical and chemical solid-state stability (comments),"[3]; 60° C., 1 week, listed as 25HC3S Calcium",Totally decomposed after 1 week at 60 °C
same,Assay,"[3]; 60° C., 1 wk (after 3 weeks at 2-8° C.), 10080 min, listed as 25HC3S calcium, 10080 min",0.0 % w/w
same,% Recovery of 2-8° C./3 wk vs 60° C./1 wk,"[3]; 60° C., 1 wk, 10080 min, listed as 25HC3S calcium",0.0%
same,Physical and chemical solid-state stability (comments),"[3]; 80° C., 3 weeks, listed as 25HC3S Calcium",Totally decomposed after 1 week at 60 °C and after 3 weeks at 80 °C
same,% Recovery,"[3]; 80° C., 3 wk, 30240 min, listed as 25HC3S calcium, 30240 min",0.0%
same,Assay,"[3]; 80° C., 3 wk, 30240 min, listed as 25HC3S calcium",0.0 % w/w
same,"% Impurities, Total",[3]; [10],100%
same,degradants dissolved in the diluent (comments),[3]; after 1 week at 60° C. and 3 weeks at 80° C.,degradants were dissolved in the diluent.extract
same,Stability after 1 week at 60° C. (in words),"[3]; solid state, 60° C.",totally decomposed
same,Stability after 3 weeks at 80° C. (in words),"[3]; solid state, 80° C., 3 weeks",totally decomposed
same,Flow Property per USP<1174> Powder Flow,[4]; listed as 25HC3S calcium,Passable - may hang up
same,Angle of Repose,[4]; listed as 25HC3S calcium,42.6 degrees
same,"Angle of Repose, Rounded Whole Number",[4]; listed as 25HC3S calcium,43 degrees
same,"pH of the solubility sample, 0.9% Sodium Chloride",[5]; listed as 25HC3S calcium,8.5
same,pH of solubility sample solution in 0.9% sodium chloride,[5]; 0.9% sodium chloride (medium pH 5.8),8.5
same,"pH of the solubility sample, 5% Dextrose",[5]; listed as 25HC3S calcium,7.2
same,"pH of the solubility sample, FaSSGF",[5],1.6
same,"pH of the solubility sample, FaSSIF",[5]; listed as 25HC3S calcium,6.5
same,"pH of the solubility sample, FeSSIF",[5],5.0
same,"pH of the solubility sample, Water",[5]; listed as 25HC3S calcium,8.8

# Reference: patent US20260317367A1, “SALTS INCLUDING CRYSTALLINE SALTS OF 25-HYDROXY-CHOLEST-5-EN-3-SULFATE AND METHODS FOR PREPARING SAME” (Durect Corporation, priority 2022, published 2026)
